These compounds were tested on HBV (assay: HBV-DNA antiviral assay using HepG2.117 cells (intracellular HBV DNA by qPCR)). Details: Hepatitis B virus, 72 h, HBV DNA inhibition, 3 days incubation, 2% DMSO.
Type: cell-based, genotype D HBV
Method: The following assay procedure describes the HBV antiviral assay, using HepG2.117 cells, which carry a stably integrated genotype D HBV genome under the control of a Tet-off promoter, and intracellular HBV DNA quantification as endpoint. Cell viability is assessed in parallel by measuring the intracellular ATP content using CellTiter-Glo 2.0 (Promega).
On day 0, HepG2.117 cells (which are maintained in routine cell culture with doxycycline present in the medium at a final concentration of 1 μg/mL) were seeded in 96-well plates (white with clear bottom) at a density of 2.0×10^4 cells/well (0.1 mL/well) in medium without doxycycline to induce pgRNA transcription and subsequent formation of HBV particles. The cells were incubated at 37° C. and 5% CO2.
On day 1, medium was removed from each well, the test articles were diluted in culture medium without doxcycyline and 100 μL was added to cell culture wells (9 concentrations, 4-fold dilution). For each plate, 6 untreated (merely DMSO) wells were included. The final concentration of DMSO in the culture medium was 2%. Each plate was prepared in duplicate (one for HBV DNA extraction, one for CellTiter-Glo 2.0 measurement). The cells were incubated at 37° C. and 5% CO2 for 3 days.
On day 4, cell viability was assessed using CellTiter-Glo 2.0 and cell lysates were prepared for HBV DNA extraction and subsequent quantification by qPCR.
HBV DNA Quantification by qPCR
Medium was removed from each well and 100 μL of 0.33% NP-40 in H2O was added to each well. Plates were sealed, incubated at 4° C. for 5 mins, vortexed extensively and centrifuged briefly. Next, 35 μL of lysate was added to 65 μL QuickExtract DNA Extraction Solution (Epicentre) in a PCR plate for each well. PCR plate was incubated at 65° C. for 6 mins, 98° C. for 2 mins and finally cooled to 4° C. HBV DNA was then quantified by qPCR with HBV-specific primers and probes as specified in Table 1 using the Bio-Rad SSOAdvanced Universal Probes Supermix on a CFX96 machine (Bio-Rad). The PCR cycle program consisted of 95° C. for 3 mins, followed by 40 cycles at 95° C. for 10 sec and 60° C. for 30 sec.
A DNA standard was prepared by dilution of an IDT gBlock corresponding to the amplicon with concentrations ranging from 10^2 to 10^8 copies/input (i.e. per 4 μL) and used to generate a standard curve by plotting Cq values vs. HBV DNA standard concentration. The quantity of HBV DNA in each sample was determined by interpolating from the standard curve.
Cell viability was calculated as follows: % Cell viability=(luminescence value of test sample)/(average luminescence value of 2% DMSO control)×100%. HBV DNA inhibition was calculated as follows: 100−(HBV DNA copy number of test sample)/(average HBV DNA copy number of 2% DMSO control)×100%. No normalization to entecavir was required due to the excellent dynamic window of this assay. The CC50, EC50 and EC90 values were determined by dose-response curves fitted by GraphPad Prism using “log (agonist) vs. response—Variable slope”.

SMILES | EC50 [µM]
C[C@@H]1Cc2c(n3ncc(Cc4ccccc4)c3n(-c3ccc(-c4noc(=O)n4C)cc3)c2=O)CN1C(=O)c1ccc(Br)c(C(F)(F)F)c1 (stereo in doubt) [Compound 41a, 4-methyl-3-[4-[rac-(11R)-5-benzyl-12-[4-bromo-3-(trifluoromethyl)benzoyl]-11-methyl-8-oxo-2,3,7,12-tetrazatricyclo[7.4.0.0^2,6]trideca-1(9),3,5-trien-7-yl]phenyl]-1,2,4-oxadiazol-5-one] | < 0.05
C[C@H]1Cc2c(n3ncc(Cc4ccccc4)c3n(-c3ccc(-c4noc(=O)n4C)cc3)c2=O)CN1C(=O)c1ccc(Br)c(C(F)(F)F)c1 (stereo in doubt) [Compound 41b, 4-methyl-3-[4-[rac-(11S)-5-benzyl-12-[4-bromo-3-(trifluoromethyl)benzoyl]-11-methyl-8-oxo-2,3,7,12-tetrazatricyclo[7.4.0.0^2,6]trideca-1(9),3,5-trien-7-yl]phenyl]-1,2,4-oxadiazol-5-one] | 0.05 to 0.5
CNc1n[nH]c2cc(-n3c(=O)c4c(n5ncc(Cc6ccccc6)c35)CN(C(=O)c3ccc(Br)c(C(F)(F)F)c3)[C@H](C)C4)ccc12 (stereo in doubt) [Compound 43a, rac-(11R)-5-benzyl-12-[4-bromo-3-(trifluoromethyl)benzoyl]-11-methyl-7-[3-(methylamino)-1H-indazol-6-yl]-2,3,7,12-tetrazatricyclo[7.4.0.0^2,6]trideca-1(9),3,5-trien-8-one] | < 0.05
CNc1n[nH]c2cc(-n3c(=O)c4c(n5ncc(Cc6ccccc6)c35)CN(C(=O)c3ccc(Br)c(C(F)(F)F)c3)[C@@H](C)C4)ccc12 (stereo in doubt) [Compound 43b, rac-(11S)-5-benzyl-12-[4-bromo-3-(trifluoromethyl)benzoyl]-11-methyl-7-[3-(methylamino)-1H-indazol-6-yl]-2,3,7,12-tetrazatricyclo[7.4.0.0^2,6]trideca-1(9),3,5-trien-8-one] | < 0.05
C[C@@H]1Cc2c(n3ncc(Cc4ccccc4)c3n(-c3ccc(-c4nc(=O)on4C)cc3)c2=O)CN1C(=O)c1ccc(Br)c(C(F)(F)F)c1 (stereo in doubt) [Compound 44a, 2-methyl-3-[4-[rac-(11R)-5-benzyl-12-[4-bromo-3-(trifluoromethyl)benzoyl]-11-methyl-8-oxo-2,3,7,12-tetrazatricyclo[7.4.0.0^2,6]trideca-1(9),3,5-trien-7-yl]phenyl]-1,2,4-oxadiazol-5-one] | < 0.05
C[C@H]1Cc2c(n3ncc(Cc4ccccc4)c3n(-c3ccc(-c4nc(=O)on4C)cc3)c2=O)CN1C(=O)c1ccc(Br)c(C(F)(F)F)c1 (stereo in doubt) [Compound 44b, 2-methyl-3-[4-[rac-(11S)-5-benzyl-12-[4-bromo-3-(trifluoromethyl)benzoyl]-11-methyl-8-oxo-2,3,7,12-tetrazatricyclo[7.4.0.0^2,6]trideca-1(9),3,5-trien-7-yl]phenyl]-1,2,4-oxadiazol-5-one] | < 0.05
C[C@@H]1Cc2c(n3ncc(CC4CCC4)c3n(-c3ccc(-c4nncn4C)cc3)c2=O)CN1C(=O)c1ccc(Br)c(C(F)(F)F)c1 (stereo in doubt) [Compound 45a, rac-(11R)-12-[4-bromo-3-(trifluoromethyl)benzoyl]-5-(cyclobutylmethyl)-11-methyl-7-[4-(4-methyl-1,2,4-triazol-3-yl)phenyl]-2,3,7,12-tetrazatricyclo[7.4.0.0^2,6]trideca-1(9),3,5-trien-8-one] | < 0.05
C[C@H]1Cc2c(n3ncc(CC4CCC4)c3n(-c3ccc(-c4nncn4C)cc3)c2=O)CN1C(=O)c1ccc(Br)c(C(F)(F)F)c1 (stereo in doubt) [Compound 45b, rac-(11S)-12-[4-bromo-3-(trifluoromethyl)benzoyl]-5-(cyclobutylmethyl)-11-methyl-7-[4-(4-methyl-1,2,4-triazol-3-yl)phenyl]-2,3,7,12-tetrazatricyclo[7.4.0.0^2,6]trideca-1(9),3,5-trien-8-one] | 0.05 to 0.5
